According to ChEMBL document CHEMBL1201862, “PubChem BioAssay data set” (2004):
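How tested: cells in 96-well plates exposed to compound for 48 hours at five concentrations. Abbreviation: GI50, concentration required for 50% inhibition of growth.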 Calls of active or inactive are those of the source. No stated cut-off is given here; in the data, active = GI50 up to about 1.1 µM and inactive = higher.

Key:
Experiment in all cases: DTP human tumour cell line panel, 48 h
786-0 = test system: 786-0
A498 = test system: A498
A549 = test system: A549
ACHN = test system: ACHN
BT-549 = test system: BT-549
CAKI-1 = test system: CAKI-1
COLO 205 = test system: COLO 205
DU-145 = test system: DU-145
EKVX = test system: EKVX
HCC 2998 = test system: HCC 2998
HCT-116 = test system: HCT-116
HCT-15 = test system: HCT-15
HL-60 = test system: HL-60
HOP-62 = test system: HOP-62
HOP-92 = test system: HOP-92
HT-29 = test system: HT-29
Hs-578T = test system: Hs-578T
IGROV-1 = test system: IGROV-1
K562 = test system: K562
KM12 = test system: KM12
LOX IMVI = test system: LOX IMVI
M14 = test system: M14
MCF7 = test system: MCF7
MDA-MB-231 = test system: MDA-MB-231
MDA-MB-435 = test system: MDA-MB-435
MDA-N = test system: MDA-N
MOLT-4 = test system: MOLT-4
Malme-3M = test system: Malme-3M
NCI-H226 = test system: NCI-H226
NCI-H23 = test system: NCI-H23
NCI-H460 = test system: NCI-H460
NCI-H522 = test system: NCI-H522
NCI/ADR-RES = test system: NCI/ADR-RES
OVCAR-3 = test system: OVCAR-3
OVCAR-4 = test system: OVCAR-4
OVCAR-5 = test system: OVCAR-5
OVCAR-8 = test system: OVCAR-8
PC-3 = test system: PC-3
RPMI-8226 = test system: RPMI-8226
RXF 393 = test system: RXF 393
SF-268 = test system: SF-268
SF-295 = test system: SF-295
SF-539 = test system: SF-539
SK-MEL-28 = test system: SK-MEL-28
SK-MEL-2 = test system: SK-MEL-2
SK-MEL-5 = test system: SK-MEL-5
SK-OV-3 = test system: SK-OV-3
SN12C = test system: SN12C
SNB-19 = test system: SNB-19
SNB-75 = test system: SNB-75
SW-620 = test system: SW-620
T47D = test system: T47D
TK-10 = test system: TK-10
U-251 = test system: U-251
UACC-257 = test system: UACC-257
UACC-62 = test system: UACC-62
UO-31 = test system: UO-31

CCC(C)C(C(=O)N/N=C1/SCC(=O)N1C)C(=O)N/N=C1/SCC(=O)N1C (configuration not stated)
GI50 (786-0): > 100 µM (inactive) | GI50 (A498): > 100 µM (inactive) | GI50 (A549): > 100 µM (inactive) | GI50 (ACHN): > 100 µM (inactive) | GI50 (BT-549): > 100 µM (inactive) | GI50 (CAKI-1): > 100 µM (inactive) | GI50 (COLO 205): > 100 µM (inactive) | GI50 (DU-145): > 100 µM (inactive) | GI50 (EKVX): > 100 µM (inactive) | GI50 (HCC 2998): > 100 µM (inactive) | GI50 (HCT-116): > 100 µM (inactive) | GI50 (HCT-15): > 100 µM | GI50 (HL-60): 2.04 µM (inactive) | GI50 (HOP-62): > 100 µM (inactive) | GI50 (HOP-92): > 100 µM (inactive) | GI50 (HT-29): > 100 µM (inactive) | GI50 (Hs-578T): > 100 µM (inactive) | GI50 (IGROV-1): > 100 µM (inactive) | GI50 (K562): > 100 µM (inactive) | GI50 (KM12): > 100 µM (inactive) | GI50 (LOX IMVI): > 100 µM (inactive) | GI50 (M14): > 100 µM (inactive) | GI50 (MCF7): > 100 µM (inactive) | GI50 (MDA-MB-231): > 100 µM (inactive) | GI50 (MDA-MB-435): > 100 µM (inactive) | GI50 (MDA-N): > 100 µM (inactive) | GI50 (MOLT-4): > 100 µM (inactive) | GI50 (Malme-3M): > 100 µM (inactive) | GI50 (NCI-H226): > 100 µM (inactive) | GI50 (NCI-H23): > 100 µM (inactive) | GI50 (NCI-H460): > 100 µM (inactive) | GI50 (NCI-H522): > 100 µM (inactive) | GI50 (NCI/ADR-RES): > 100 µM (inactive) | GI50 (OVCAR-3): > 100 µM (inactive) | GI50 (OVCAR-4): > 100 µM (inactive) | GI50 (OVCAR-5): > 100 µM (inactive) | GI50 (OVCAR-8): > 100 µM (inactive) | GI50 (PC-3): > 100 µM (inactive) | GI50 (RPMI-8226): > 100 µM (inactive) | GI50 (RXF 393): > 100 µM (inactive) | GI50 (SF-268): > 100 µM (inactive) | GI50 (SF-295): > 100 µM (inactive) | GI50 (SF-539): > 100 µM (inactive) | GI50 (SK-MEL-28): > 100 µM (inactive) | GI50 (SK-MEL-2): > 100 µM (inactive) | GI50 (SK-MEL-5): > 100 µM (inactive) | GI50 (SK-OV-3): > 100 µM (inactive) | GI50 (SN12C): > 100 µM (inactive) | GI50 (SNB-19): > 100 µM (inactive) | GI50 (SNB-75): > 100 µM (inactive) | GI50 (SW-620): > 100 µM (inactive) | GI50 (T47D): > 100 µM (inactive) | GI50 (TK-10): > 100 µM (inactive) | GI50 (U-251): > 100 µM (inactive) | GI50 (UACC-257): > 100 µM (inactive) | GI50 (UACC-62): > 100 µM (inactive) | GI50 (UO-31): > 100 µM (inactive)
